Test results reported in patent US11641856B2 (SMITH & NEPHEW, INC., priority 2015, dated 2023).

system: not given; experiment: not given; settings: reference standards with known log P values used for HPLC calibration; cited from earlier work

| Compound | log P |
| --- | --- |
| CCCCOC(=O)CCCCCCCCC(=O)OCCCC [Dibutyl sebacate] | 6.3 |
| O=C(C=Cc1ccccc1)OCc1ccccc1 [Benzyl cinnamate] | 4.06 |

system: S. aureus biofilm; experiment: In-vitro S. aureus biofilm model, treatment with oils of various polarity; assay type: cell-based; settings: oils with log P within vs outside 0.5 to 2.0

| Compound | antibacterial activity against biofilms (log reduction of bacteria vs. moist control, FIG. 1) |
| --- | --- |
| CCCCCCCC/C=C\CCCCCCCC(=O)O [oleic acid] | did not exhibit very much antimicrobial activity against biofilms |
| CCCCCCCCCCCCCC(=O)OC(C)C [isopropyl myristate] | did not exhibit very much antimicrobial activity against biofilms |
| CCCOC(=O)c1cc(O)c(O)c(O)c1 [Propyl Gallate] | exhibited some antibacterial activity against biofilms |
| COC(=O)c1ccccc1 [methyl benzoate] | did not exhibit very much antimicrobial activity against biofilms |
| diethyl acetate | did not exhibit very much antimicrobial activity against biofilms |
| CCCCCCCCCCCC(=O)OCC(O)CO (centres unmarked) [MONOMULS®, glyceryl monolaurate] | did not exhibit very much antimicrobial activity against biofilms |
| O=C(O)c1ccccc1 [Benzoic Acid] | exhibited some antibacterial activity against biofilms |
| OCc1ccccc1 [Benzyl Alcohol] | exhibited some antibacterial activity against biofilms |
| Oc1cccc(O)c1 [Resorcinol] | exhibited some antibacterial activity against biofilms |
| CCOC(=O)c1cc(O)c(O)c(O)c1 [Ethyl Gallate] | exhibited some antibacterial activity against biofilms |
| CC(=O)OCC(COC(C)=O)OC(C)=O [glyceryl triacetate] | did not exhibit very much antimicrobial activity against biofilms |
| CCOC(C)=O [Ethyl Acetate] | exhibited some antibacterial activity against biofilms |
